Measured values: patent US9695155B2, “Herbicidal substituted pyrimidinyloxy benzene compounds” (E. I. DU PONT DE NEMOURS AND COMPANY, priority 2013, dated 2017)

Experiments:
yellow nutsedge = assay: Test C postemergence; assay type: in vivo, Cyperus esculentus; details: for Plant response rating (0 to 100), Nutsedge, Yellow: postemergence; for Plant response rating, Nutsedge, Yellow: Postemergence, scale 0 to 100 (0 no effect, 100 complete control)
Outline: (§1)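 Sown in loam/sand → sprayed pre-emergence; or grown to 1–4 leaves in peat mix → sprayed post-emergence. Same solvent/surfactant formulation both ways. Greenhouse 13–15 d. Score 0–100 visual.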

lambsquarters = assay: Test C postemergence; assay type: in vivo, Chenopodium album; details: for Plant response rating (0 to 100), Lambsquarters: postemergence; for Plant response rating, Lambsquarters: Postemergence, scale 0 to 100 (0 no effect, 100 complete control)
Outline: as §1

pigweed = assay: Test A postemergence; assay type: in vivo, Amaranthus retroflexus
Outline: (§2)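 Pre- and postemergence greenhouse screen. Soil: loam + sand. Spray carrier: solvent mixture, non-phytotoxic, with surfactant. Post timing at 1–2 leaves, height 2–10 cm. Readout: visual injury on a 0–100 scale roughly 10 days after application, untreated plants as reference.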

barnyardgrass [1] = assay: Test A postemergence; assay type: in vivo, Echinochloa crus-galli
Outline: as §2

rice = assay: Test B flooded paddy test; assay type: in vivo, Oryza sativa; details: Flood, 250 g ai/ha; 0 to 100 scale where 0 is no effect and 100 is complete control
Outline: (§3)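 Greenhouse flooded-pot test: compounds dosed into 3 cm standing water over 2-leaf plants, flood held constant. Rated visually after 13–15 days on 0–100 (complete control = 100); a dash marks no test result.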

chickweed = assay: Test C postemergence; assay type: in vivo, Stellaria media; details: for Plant response rating, Chickweed: Postemergence
Outline: as §1

barnyardgrass [2] = assay: Test A preemergence; assay type: in vivo, Echinochloa crus-galli; details: for Plant response rating, Barnyardgrass: 125 g ai/ha, 0 to 100 scale where 0 is no effect and 100 is complete control; for Barnyardgrass plant response rating: 500 g ai/ha, 0 to 100 scale, 0 no effect, 100 complete control, approx. 10 days
Outline: as §2

barnyardgrass [3] = assay: Test C postemergence; assay type: in vivo, Echinochloa crus-galli; details: for Plant response rating, Barnyardgrass: Postemergence
Outline: as §1

large (Lg) crabgrass [4] = assay: Test C postemergence; assay type: in vivo, Digitaria sanguinalis; details: for Plant response rating, Crabgrass, Large: Postemergence
Outline: as §1

sedge, umbrella = assay: Test B flooded paddy test; assay type: in vivo, Cyperus difformis; details: Flood, 250 g ai/ha; 0 to 100 scale where 0 is no effect and 100 is complete control
Outline: as §3

wild oat = assay: Test C postemergence; assay type: in vivo, Avena fatua; details: for Plant response rating (0 to 100), Oat, Wild: postemergence; for Plant response rating, Oat, Wild: Postemergence, scale 0 to 100 (0 no effect, 100 complete control)
Outline: as §1

barnyardgrass [5] = assay: Test B flooded paddy test; assay type: in vivo, Echinochloa crus-galli; details: Flood, 250 g ai/ha; 0 to 100 scale where 0 is no effect and 100 is complete control
Outline: as §3

large (Lg) crabgrass [6] = assay: Test A preemergence; assay type: in vivo, Digitaria sanguinalis; details: for Plant response rating, Crabgrass, Large: 125 g ai/ha, 0 to 100 scale where 0 is no effect and 100 is complete control; for Crabgrass, Large plant response rating: 500 g ai/ha, 0 to 100 scale, 0 no effect, 100 complete control, approx. 10 days
Outline: as §2

giant foxtail = assay: Test C postemergence; assay type: in vivo, Setaria faberii; details: for Plant response rating, Foxtail, Giant: Postemergence
Outline: as §1

morningglory = assay: Test C postemergence; assay type: in vivo, Ipomoea coccinea; details: for Plant response rating (0 to 100), Morningglory: postemergence; for Plant response rating, Morningglory: Postemergence, scale 0 to 100 (0 no effect, 100 complete control)
Outline: as §1

[7] = 125 g ai/ha, 0 to 100 scale where 0 is no effect and 100 is complete control
[8] = 500 g ai/ha, 0 to 100 scale where 0 is no effect and 100 is complete control
[9] = 16 g ai/ha, postemergence, visual rating, scale 0 to 100 (0 no effect, 100 complete control), 13 to 15 days
[10] = 31 g ai/ha, scale 0 to 100 (0 no effect, 100 complete control), 13 to 15 days
[11] = 62 g ai/ha, scale 0 to 100 (0 no effect, 100 complete control)
[12] = 500 g ai/ha, 0 to 100 scale, 0 no effect, 100 complete control

## N#Cc1cccc(Oc2ncc(Cl)cn2)c1-n1cc(OC(F)F)cn1 [Compound 97]
Yellow nutsedge; 125 g ai/ha
  Plant response rating (0 to 100), Nutsedge, Yellow: 5
Yellow nutsedge; 31 g ai/ha, 13 to 15 days
  Plant response rating, Nutsedge, Yellow: 5
Yellow nutsedge; 62 g ai/ha
  Plant response rating, Nutsedge, Yellow: 5
lambsquarters; 125 g ai/ha
  Plant response rating (0 to 100), Lambsquarters: 98
lambsquarters; 31 g ai/ha, 13 to 15 days
  Plant response rating, Lambsquarters: 75
lambsquarters; 62 g ai/ha
  Plant response rating, Lambsquarters: 80
pigweed; [7]
  Plant response rating, Pigweed: 100
pigweed; [8]
  Plant response rating, Pigweed: 100
Barnyardgrass [1]; [7]
  Plant response rating, Barnyardgrass: 90
Barnyardgrass [1]; [8]
  Plant response rating, Barnyardgrass: 100
rice
  Plant response rating, Rice: 0
chickweed; [9]
  Chickweed plant response rating: 70
chickweed; 125 g ai/ha, postemergence
  Plant response rating (0 to 100), Chickweed: 90
chickweed; [10]
  Plant response rating, Chickweed: 60
chickweed; [11]
  Plant response rating, Chickweed: 80
Barnyardgrass [2]
  Plant response rating, Barnyardgrass: 80
  Barnyardgrass plant response rating: 100
Barnyardgrass [3]; [9]
  Barnyardgrass plant response rating: 10
Barnyardgrass [3]; 125 g ai/ha, postemergence
  Plant response rating (0 to 100), Barnyardgrass: 15
Barnyardgrass [3]; [10]
  Plant response rating, Barnyardgrass: 10
Barnyardgrass [3]; [11]
  Plant response rating, Barnyardgrass: 10
Large (Lg) crabgrass [4]; [9]
  Crabgrass, Large plant response rating: 5
Large (Lg) crabgrass [4]; 125 g ai/ha, postemergence
  Plant response rating (0 to 100), Crabgrass, Large: 55
Large (Lg) crabgrass [4]; [10]
  Plant response rating, Crabgrass, Large: 10
Large (Lg) crabgrass [4]; [11]
  Plant response rating, Crabgrass, Large: 15
sedge, umbrella
  Plant response rating, Sedge, Umbrella: 90
Wild oat; 125 g ai/ha
  Plant response rating (0 to 100), Oat, Wild: 25
Wild oat; 31 g ai/ha, 13 to 15 days
  Plant response rating, Oat, Wild: 10
Wild oat; 62 g ai/ha
  Plant response rating, Oat, Wild: 15
Barnyardgrass [5]
  Plant response rating, Barnyardgrass: 40
Large (Lg) crabgrass [6]
  Plant response rating, Crabgrass, Large: 100
  Crabgrass, Large plant response rating: 100
Giant foxtail; [9]
  Foxtail, Giant plant response rating: 10
Giant foxtail; 125 g ai/ha, postemergence
  Plant response rating (0 to 100), Foxtail, Giant: 15
Giant foxtail; [10]
  Plant response rating, Foxtail, Giant: 5
Giant foxtail; [11]
  Plant response rating, Foxtail, Giant: 10
morningglory; 125 g ai/ha
  Plant response rating (0 to 100), Morningglory: 95
morningglory; 31 g ai/ha, 13 to 15 days
  Plant response rating, Morningglory: 85
morningglory; 62 g ai/ha
  Plant response rating, Morningglory: 85

## Fc1cnc(Oc2ccccc2-n2cc(C(F)(F)F)cn2)nc1 [Compound 47]
Yellow nutsedge; 125 g ai/ha
  Plant response rating (0 to 100), Nutsedge, Yellow: 0
Yellow nutsedge; 250 g ai/ha
  Plant response rating (0 to 100), Nutsedge, Yellow: 10
Yellow nutsedge; 31 g ai/ha, 13 to 15 days
  Plant response rating, Nutsedge, Yellow: 0
Yellow nutsedge; 62 g ai/ha
  Plant response rating, Nutsedge, Yellow: 0
lambsquarters; 125 g ai/ha
  Plant response rating (0 to 100), Lambsquarters: 60
lambsquarters; 250 g ai/ha
  Plant response rating (0 to 100), Lambsquarters: 90
lambsquarters; 31 g ai/ha, 13 to 15 days
  Plant response rating, Lambsquarters: 30
lambsquarters; 62 g ai/ha
  Plant response rating, Lambsquarters: 45
pigweed; [7]
  Plant response rating, Pigweed: 100
pigweed; [12]
  Plant response rating, Pigweed: 100
Barnyardgrass [1]; [7]
  Plant response rating, Barnyardgrass: 30
Barnyardgrass [1]; [12]
  Plant response rating, Barnyardgrass: 100
rice
  Plant response rating, Rice: 35
chickweed; 125 g ai/ha, postemergence
  Plant response rating (0 to 100), Chickweed: 50
chickweed; 250 g ai/ha, postemergence
  Plant response rating (0 to 100), Chickweed: 50
chickweed; [10]
  Plant response rating, Chickweed: 5
chickweed; [11]
  Plant response rating, Chickweed: 5
Barnyardgrass [2]
  Plant response rating, Barnyardgrass: 20
  Barnyardgrass plant response rating: 100
Barnyardgrass [3]; 125 g ai/ha, postemergence
  Plant response rating (0 to 100), Barnyardgrass: 0
Barnyardgrass [3]; 250 g ai/ha, postemergence
  Plant response rating (0 to 100), Barnyardgrass: 5
Barnyardgrass [3]; [10]
  Plant response rating, Barnyardgrass: 0
Barnyardgrass [3]; [11]
  Plant response rating, Barnyardgrass: 0
Large (Lg) crabgrass [4]; 125 g ai/ha, postemergence
  Plant response rating (0 to 100), Crabgrass, Large: 5
Large (Lg) crabgrass [4]; 250 g ai/ha, postemergence
  Plant response rating (0 to 100), Crabgrass, Large: 10
Large (Lg) crabgrass [4]; [10]
  Plant response rating, Crabgrass, Large: 5
Large (Lg) crabgrass [4]; [11]
  Plant response rating, Crabgrass, Large: 5
sedge, umbrella
  Plant response rating, Sedge, Umbrella: 70
Wild oat; 125 g ai/ha
  Plant response rating (0 to 100), Oat, Wild: 0
Wild oat; 250 g ai/ha
  Plant response rating (0 to 100), Oat, Wild: 5
Wild oat; 31 g ai/ha, 13 to 15 days
  Plant response rating, Oat, Wild: 0
Wild oat; 62 g ai/ha
  Plant response rating, Oat, Wild: 0
Barnyardgrass [5]
  Plant response rating, Barnyardgrass: 10
Large (Lg) crabgrass [6]
  Plant response rating, Crabgrass, Large: 90
  Crabgrass, Large plant response rating: 100
Giant foxtail; 125 g ai/ha, postemergence
  Plant response rating (0 to 100), Foxtail, Giant: 25
Giant foxtail; 250 g ai/ha, postemergence
  Plant response rating (0 to 100), Foxtail, Giant: 80
Giant foxtail; [10]
  Plant response rating, Foxtail, Giant: 10
Giant foxtail; [11]
  Plant response rating, Foxtail, Giant: 25
morningglory; 125 g ai/ha
  Plant response rating (0 to 100), Morningglory: 70
morningglory; 250 g ai/ha
  Plant response rating (0 to 100), Morningglory: 75
morningglory; 31 g ai/ha, 13 to 15 days
  Plant response rating, Morningglory: 20
morningglory; 62 g ai/ha
  Plant response rating, Morningglory: 70
